Experimental data reported in patent US10160747B2, “Compounds and methods for kinase modulation, and indications therefor” (Plexxikon Inc., priority 2016, dated 2018).
pIC50: −log10 of the molar value.

molecular target: T1, c-KIT (Homo sapiens, UniProt P10721); test: c-KIT recombinant enzyme kinase assay (AlphaScreen); assay type: biochemical; conditions: 100 ATP, 8 pt
T1 construct: purchased Millipore 14-559K
How it was run: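 Kinase activity of recombinant FLT3-ITD, FLT3-D835Y and c-KIT was followed via phosphotyrosine formation on a 30 nM biotin-peptide substrate, captured on streptavidin donor and anti-phosphotyrosine acceptor AlphaScreen beads. ATP was set at 10 μM for FLT3 and 100 μM for c-KIT.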

T1 sequence (P10721 26-976): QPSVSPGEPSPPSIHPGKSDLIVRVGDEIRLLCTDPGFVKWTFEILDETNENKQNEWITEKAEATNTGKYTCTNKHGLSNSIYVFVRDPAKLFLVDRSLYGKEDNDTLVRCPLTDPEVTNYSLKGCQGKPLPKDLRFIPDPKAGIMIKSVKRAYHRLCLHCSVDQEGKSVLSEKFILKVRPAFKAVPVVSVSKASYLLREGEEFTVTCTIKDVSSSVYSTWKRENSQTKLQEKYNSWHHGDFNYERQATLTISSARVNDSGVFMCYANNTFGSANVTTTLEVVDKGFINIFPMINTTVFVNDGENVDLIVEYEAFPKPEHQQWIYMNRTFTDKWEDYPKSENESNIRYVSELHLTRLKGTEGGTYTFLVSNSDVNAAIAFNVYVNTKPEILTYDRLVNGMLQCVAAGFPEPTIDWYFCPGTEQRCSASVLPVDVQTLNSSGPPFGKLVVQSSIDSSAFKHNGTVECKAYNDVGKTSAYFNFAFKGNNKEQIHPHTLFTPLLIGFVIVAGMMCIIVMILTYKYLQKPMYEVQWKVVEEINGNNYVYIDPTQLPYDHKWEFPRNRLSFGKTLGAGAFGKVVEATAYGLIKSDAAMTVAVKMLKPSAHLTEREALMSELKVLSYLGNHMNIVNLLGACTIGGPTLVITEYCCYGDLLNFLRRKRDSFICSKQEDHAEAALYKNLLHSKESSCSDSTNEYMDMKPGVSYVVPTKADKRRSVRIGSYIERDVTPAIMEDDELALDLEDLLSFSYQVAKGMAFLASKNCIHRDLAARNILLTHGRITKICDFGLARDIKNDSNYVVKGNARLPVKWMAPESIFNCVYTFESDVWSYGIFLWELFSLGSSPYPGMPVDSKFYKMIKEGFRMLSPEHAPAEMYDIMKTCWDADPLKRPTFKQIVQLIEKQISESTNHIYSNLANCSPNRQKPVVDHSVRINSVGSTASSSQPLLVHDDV

SMILES | pIC50
O=C(Cc1ccc(-c2cnc(Nc3cnn(C4CC4)c3)nc2)cc1)Nc1cncc(C(F)(F)F)c1 [Compound P-0231, 2-[4-[2-[(1-cyclopropylpyrazol-4-yl)amino]pyrimidin-5-yl]phenyl]-N-[5-(trifluoromethyl)-3-pyridyl]acetamide] | 5.00 to 10.00
Cc1ncc(NC(=O)Cc2ccc(-c3cnc(Nc4cnn(C5CC5)c4)nc3)cc2)cc1C(F)(F)F [Compound P-0232, 2-[4-[2-[(1-cyclopropylpyrazol-4-yl)amino]pyrimidin-5-yl]phenyl]-N-[6-methyl-5-(trifluoromethyl)-3-pyridyl]acetamide] | 5.00 to 10.00
O=C(Cc1ccc(-c2cnc(Nc3cnn(C4CC4)c3)nc2)cc1)Nc1cnc(Cl)c(C(F)(F)F)c1 [Compound P-0233, N-[6-chloro-5-(trifluoromethyl)-3-pyridyl]-2-[4-[2-[(1-cyclopropylpyrazol-4-yl)amino]pyrimidin-5-yl]phenyl]acetamide] | 5.00 to 10.00
COc1ncc(NC(=O)Cc2ccc(-c3cnc(Nc4cnn(C5CC5)c4)nc3)cc2)cc1C(F)(F)F [Compound P-0234, 2-[4-[2-[(1-cyclopropylpyrazol-4-yl)amino]pyrimidin-5-yl]phenyl]-N-[6-methoxy-5-(trifluoromethyl)-3-pyridyl]acetamide] | 5.00 to 10.00
O=C(Cc1ccc(-c2cnc(Nc3cnn(C4CC4)c3)nc2)cc1)Nc1ccc(C(F)(F)F)nc1 [Compound P-0235, 2-[4-[2-[(1-cyclopropylpyrazol-4-yl)amino]pyrimidin-5-yl]phenyl]-N-[6-(trifluoromethyl)-3-pyridyl]acetamide] | 5.00 to 10.00
O=C(Cc1ccc(-c2cnc(Nc3cnn(C4CC4)c3)nc2)cc1)Nc1ccc(C(F)(F)F)cn1 [Compound P-0236, 2-[4-[2-[(1-cyclopropylpyrazol-4-yl)amino]pyrimidin-5-yl]phenyl]-N-[5-(trifluoromethyl)-2-pyridyl]acetamide] | 5.00 to 10.00
O=C(Cc1ccc(-c2cnc(Nc3cnn(C4CC4)c3)nc2)cc1)Nc1cc(C(F)(F)F)ccn1 [Compound P-0237, 2-[4-[2-[(1-cyclopropylpyrazol-4-yl)amino]pyrimidin-5-yl]phenyl]-N-[4-(trifluoromethyl)-2-pyridyl]acetamide] | 5.00 to 10.00
O=C(Cc1ccc(-c2cnc(Nc3cnn(C4CC4)c3)nc2)cc1F)Nc1cncc(C(F)(F)F)c1 [Compound P-0238, 2-[4-[2-[(1-cyclopropylpyrazol-4-yl)amino]pyrimidin-5-yl]-2-fluoro-phenyl]-N-[5-(trifluoromethyl)-3-pyridyl]acetamide] | 5.00 to 10.00
Cc1ncc(NC(=O)Cc2ccc(-c3cnc(Nc4cnn(C5CC5)c4)nc3)cc2F)cc1C(F)(F)F [Compound P-0239, 2-[4-[2-[(1-cyclopropylpyrazol-4-yl)amino]pyrimidin-5-yl]-2-fluoro-phenyl]-N-[6-methyl-5-(trifluoromethyl)-3-pyridyl]acetamide] | 5.00 to 10.00
O=C(Cc1ccc(-c2cnc(Nc3cnn(C4CC4)c3)nc2)cc1F)Nc1cnc(Cl)c(C(F)(F)F)c1 [Compound P-0240, N-[6-chloro-5-(trifluoromethyl)-3-pyridyl]-2-[4-[2-[(1-cyclopropylpyrazol-4-yl)amino]pyrimidin-5-yl]-2-fluoro-phenyl]acetamide] | 5.00 to 10.00
COc1ncc(NC(=O)Cc2ccc(-c3cnc(Nc4cnn(C5CC5)c4)nc3)cc2F)cc1C(F)(F)F [Compound P-0241, 2-[4-[2-[(1-cyclopropylpyrazol-4-yl)amino]pyrimidin-5-yl]-2-fluoro-phenyl]-N-[6-methoxy-5-(trifluoromethyl)-3-pyridyl]acetamide] | 5.00 to 10.00
O=C(Cc1ccc(-c2cnc(Nc3cnn(C4CC4)c3)nc2)cc1F)Nc1ccc(C(F)(F)F)nc1 [Compound P-0242, 2-[4-[2-[(1-cyclopropylpyrazol-4-yl)amino]pyrimidin-5-yl]-2-fluoro-phenyl]-N-[6-(trifluoromethyl)-3-pyridyl]acetamide] | 5.00 to 10.00
O=C(Cc1ccc(-c2cnc(Nc3cnn(C4CC4)c3)nc2)cc1F)Nc1ccc(C(F)(F)F)cn1 [Compound P-0243, 2-[4-[2-[(1-cyclopropylpyrazol-4-yl)amino]pyrimidin-5-yl]-2-fluoro-phenyl]-N-[5-(trifluoromethyl)-2-pyridyl]acetamide] | 5.00 to 10.00
O=C(Cc1ccc(-c2cnc(Nc3cnn(C4CC4)c3)nc2)cc1F)Nc1cc(C(F)(F)F)ccn1 [Compound P-0244, 2-[4-[2-[(1-cyclopropylpyrazol-4-yl)amino]pyrimidin-5-yl]-2-fluoro-phenyl]-N-[4-(trifluoromethyl)-2-pyridyl]acetamide] | 5.00 to 10.00
CCn1cc(Nc2ncc(-c3ccc(CC(=O)Nc4cnc(OC)c(C(F)(F)F)c4)cc3F)cn2)cn1 [Compound P-0246, 2-[4-[2-[(1-ethylpyrazol-4-yl)amino]pyrimidin-5-yl]-3-fluoro-phenyl]-N-[6-methoxy-5-(trifluoromethyl)-3-pyridyl]acetamide] | 5.00 to 10.00
CCn1cc(Nc2ncc(-c3cc(F)c(CC(=O)Nc4cnc(OC)c(C(F)(F)F)c4)cc3F)cn2)cn1 [Compound P-0247, 2-[4-[2-[(1-ethylpyrazol-4-yl)amino]pyrimidin-5-yl]-2,5-difluoro-phenyl]-N-[6-methoxy-5-(trifluoromethyl)-3-pyridyl]acetamide] | 5.00 to 10.00

SMILES | pIC50
CCn1cc(Nc2ncc(-c3ccc(CC(=O)Nc4cnc(C)c(C(F)(F)F)c4)cc3F)cn2)cn1 [Compound P-0248, 2-[4-[2-[(1-ethylpyrazol-4-yl)amino]pyrimidin-5-yl]-3-fluoro-phenyl]-N-[6-methyl-5-(trifluoromethyl)-3-pyridyl]acetamide] | 5.00 to 10.00
CCn1cc(Nc2ncc(-c3cc(F)c(CC(=O)Nc4cnc(C)c(C(F)(F)F)c4)cc3F)cn2)cn1 [Compound P-0249, 2-[4-[2-[(1-ethylpyrazol-4-yl)amino]pyrimidin-5-yl]-2,5-difluoro-phenyl]-N-[6-methyl-5-(trifluoromethyl)-3-pyridyl]acetamide] | 5.00 to 10.00
CCn1cc(Nc2ncc(-c3ccc(CC(=O)Nc4cc(C(F)(F)F)ccn4)cc3)cn2)cn1 [Compound P-0250, 2-[4-[2-[(1-ethylpyrazol-4-yl)amino]pyrimidin-5-yl]phenyl]-N-[4-(trifluoromethyl)-2-pyridyl]acetamide] | 5.00 to 10.00
CCn1cc(Nc2ncc(-c3ccc(CC(=O)Nc4ccc(C(F)(F)F)cn4)cc3)cn2)cn1 [Compound P-0251, 2-[4-[2-[(1-ethylpyrazol-4-yl)amino]pyrimidin-5-yl]phenyl]-N-[5-(trifluoromethyl)-2-pyridyl]acetamide] | 5.00 to 10.00
CCn1cc(Nc2ncc(-c3ccc(CC(=O)Nc4ccc(C(F)(F)F)nc4)cc3)cn2)cn1 [Compound P-0252, 2-[4-[2-[(1-ethylpyrazol-4-yl)amino]pyrimidin-5-yl]phenyl]-N-[6-(trifluoromethyl)-3-pyridyl]acetamide] | 5.00 to 10.00
CCn1cc(Nc2ncc(-c3ccc(CC(=O)Nc4cnc(OC)c(C(F)(F)F)c4)cc3)cn2)cn1 [Compound P-0253, 2-[4-[2-[(1-ethylpyrazol-4-yl)amino]pyrimidin-5-yl]phenyl]-N-[6-methoxy-5-(trifluoromethyl)-3-pyridyl]acetamide] | 5.00 to 10.00
CCn1cc(Nc2ncc(-c3ccc(CC(=O)Nc4cnc(C)c(C(F)(F)F)c4)cc3)cn2)cn1 [Compound P-0254, 2-[4-[2-[(1-ethylpyrazol-4-yl)amino]pyrimidin-5-yl]phenyl]-N-[6-methyl-5-(trifluoromethyl)-3-pyridyl]acetamide] | 5.00 to 10.00
CCn1cc(Nc2ncc(-c3ccc(CC(=O)Nc4cc(C(F)(F)F)ccn4)c(F)c3)cn2)cn1 [Compound P-0255, 2-[4-[2-[(1-ethylpyrazol-4-yl)amino]pyrimidin-5-yl]-2-fluoro-phenyl]-N-[4-(trifluoromethyl)-2-pyridyl]acetamide] | 5.00 to 10.00
CCn1cc(Nc2ncc(-c3ccc(CC(=O)Nc4ccc(C(F)(F)F)cn4)c(F)c3)cn2)cn1 [Compound P-0256, 2-[4-[2-[(1-ethylpyrazol-4-yl)amino]pyrimidin-5-yl]-2-fluoro-phenyl]-N-[5-(trifluoromethyl)-2-pyridyl]acetamide] | 5.00 to 10.00
CCn1cc(Nc2ncc(-c3ccc(CC(=O)Nc4ccc(C(F)(F)F)nc4)c(F)c3)cn2)cn1 [Compound P-0257, 2-[4-[2-[(1-ethylpyrazol-4-yl)amino]pyrimidin-5-yl]-2-fluoro-phenyl]-N-[6-(trifluoromethyl)-3-pyridyl]acetamide] | 5.00 to 10.00
CCn1cc(Nc2ncc(-c3ccc(CC(=O)Nc4cncc(C(F)(F)F)c4)c(F)c3)cn2)cn1 [Compound P-0258, 2-[4-[2-[(1-ethylpyrazol-4-yl)amino]pyrimidin-5-yl]-2-fluoro-phenyl]-N-[5-(trifluoromethyl)-3-pyridyl]acetamide] | 5.00 to 10.00
CCn1cc(Nc2ncc(-c3ccc(CC(=O)Nc4cnc(OC)c(C(F)(F)F)c4)c(F)c3)cn2)cn1 [Compound P-0259, 2-[4-[2-[(1-ethylpyrazol-4-yl)amino]pyrimidin-5-yl]-2-fluoro-phenyl]-N-[6-methoxy-5-(trifluoromethyl)-3-pyridyl]acetamide] | 5.00 to 10.00
CCn1cc(Nc2ncc(-c3ccc(CC(=O)Nc4cnc(Cl)c(C(F)(F)F)c4)c(F)c3)cn2)cn1 [Compound P-0260, N-[6-chloro-5-(trifluoromethyl)-3-pyridyl]-2-[4-[2-[(1-ethylpyrazol-4-yl)amino]pyrimidin-5-yl]-2-fluoro-phenyl]acetamide] | 5.00 to 10.00
CCn1cc(Nc2ncc(-c3ccc(CC(=O)Nc4cnc(C)c(C(F)(F)F)c4)c(F)c3)cn2)cn1 [Compound P-0261, 2-[4-[2-[(1-ethylpyrazol-4-yl)amino]pyrimidin-5-yl]-2-fluoro-phenyl]-N-[6-methyl-5-(trifluoromethyl)-3-pyridyl]acetamide] | 5.00 to 10.00
COc1ncc(NC(=O)Cc2ccc(-c3cnc4[nH]nc(C5CC5)c4c3)cc2F)cc1C(F)(F)F [Compound P-0262, 2-[4-(3-cyclopropyl-1H-pyrazolo[3,4-b]pyridin-5-yl)-2-fluoro-phenyl]-N-[6-methoxy-5-(trifluoromethyl)-3-pyridyl]acetamide] | 5.00 to 10.00
